Data published in patent US11246866B2, “Solid pharmaceutical compositions for treating HCV” (AbbVie Inc., priority 2015, dated 2022).

Assay: Single-dose crossover bioavailability study of Compound 1/Compound 2 mini-tablets
Assay type: in vivo, human
Conditions: for t1/2: Compound 1, fasting, harmonic mean, N = 14; for effect of administration with food on bioavailability: co-formulated mini-tablets, solid dispersion form, with food vs fasting
Description: In comparison, when administered with food, the mini-tablets provided an AUC that was only 5% lower than that provided by the regular tablets. […] All of the reference AUCs of the regular tablets were measured under fasting conditions. 14 subjects were enrolled in this study and dosed with co-formulated Compound 1/Compound 2 in mini-tablets. One subject spilled 4 mini-tablets (out of 100-150 total mini-tablets) during dosing of Period 2 (Regimen G) and was not excluded from the analysis. The mini-tablets were prepared according to a process similar to that described in Example 2. [table] [table]

t1/2 (Regimen F: mini-tablets 200 mg/120 mg) [h] | t1/2 (Regimen J: two 100 mg Compound 1 tablets and three 40 mg Compound 2 tablets) [h] | effect of administration with food on bioavailability | AUC lower than that provided by regular tablets (mini-tablets containing 200 mg Compound 1, with food, vs two regular tablets under fasting conditions) [%] | AUC lower than that provided by regular tablets (mini-tablets containing 200 mg Compound 1, without food, vs two regular tablets (same amount, same solid dispersion) under fasting conditions) [%] | AUC higher than that provided by regular tablets (mini-tablets containing 120 mg Compound 2, with food, vs three regular tablets under fasting conditions) [%] | AUC lower than that provided by regular tablets (mini-tablets containing 120 mg Compound 2, without food, vs three regular tablets under fasting conditions) [%] | Structure (SMILES)
5.61 | 5.93 | significantly increase | 5 | 41 |  |  | CC(C)(C)[C@@H]1NC(=O)O[C@@H]2CCC[C@H]2OC/C=C/C(F)(F)c2nc3ccccc3nc2O[C@@H]2C[C@@H](C(=O)N[C@]3(C(=O)NS(=O)(=O)C4(C)CC4)C[C@H]3C(F)F)N(C2)C1=O [Compound 1]
 |  | significantly increase |  |  | 6 | 28 | COC(=O)N[C@H](C(=O)N1CCC[C@H]1c1nc2cc([C@H]3CC[C@H](c4cc5nc([C@@H]6CCCN6C(=O)[C@@H](NC(=O)OC)[C@@H](C)OC)[nH]c5cc4F)N3c3cc(F)c(N4CCC(c5ccc(F)cc5)CC4)c(F)c3)c(F)cc2[nH]1)[C@@H](C)OC [Compound 2]
